Measured values: US10472687B2, “Methods to identify antituberculosis compounds” (priority 2016, dated 2019)
Where two headings read alike, the source gives them in different places.

Key:
MTB H37Rv lacking Rv0324 = assay type: cell-based, Mycobacterium tuberculosis
[1] = target: mycobacterial F1Fo ATP synthase (Mycobacterium tuberculosis, UniProt P9WPS1+P9WPV7); details: cited from earlier work
MTB H37Rv wildtype = assay type: cell-based, Mycobacterium tuberculosis
MTB H37Rv lacking Rv0880 = assay type: cell-based, Mycobacterium tuberculosis
MTB [2] = details: cited from earlier work
[3] = system: Rv2323c'::GFP strain (Rv0324-responsive promoter); assay type: cell-based, Mycobacterium tuberculosis; details: in the presence of BDQ, FIG. 2
MTB [4] = assay type: cell-based, Mycobacterium tuberculosis

SMILES: COc1nc2ccc(Br)cc2cc1[C@@H](c1ccccc1)[C@@](O)(CCN(C)C)c1cccc2ccccc12 [bedaquiline]
- greater survival deficiency compared to the wildtype (MTB H37Rv lacking Rv0324): 1.8 log10
- overall growth over seven days of treatment (MTB H37Rv lacking Rv0324): negative overall growth
- selectivity for mycobacterial F1Fo ATP synthase [1]: high selectivity
- overall growth rate over seven days of treatment (MTB H37Rv wildtype): positive growth rate
- greater survival deficiency compared to the wildtype (MTB H37Rv lacking Rv0880): 1.3 -fold log10
- overall growth over seven days of treatment (MTB H37Rv lacking Rv0880): negative overall growth
- MTB killing (MTB [2]; after 96 hours): effective MTB killing occurs
- bactericidal activity (MTB [2]; during the first 4-6 days): almost no bactericidal activity
- bactericidal activity (MTB [2]; first 96 hours after BDQ treatment, even at 30 times the MIC): little bactericidal activity
- GFP fluorescence of the reporter strain [3]: high level of fluorescence
- decrease in Rv0880 expression (MTB [4]): > 2.0 absolute log2 fold-change
- genes significantly differentially expressed compared to untreated samples (MTB [4]): 1,121 genes
- increase in Rv0324 expression upon bedaquiline treatment (MTB [4]): > 1.5 absolute log2 fold-change
- downregulated genes among the differentially expressed genes (MTB [4]; 15 μM BDQ, 48 and 96 hours combined): 897 genes
